From publication PMC6225228, “Design, Synthesis and Evaluation of N-pyrazinylbenzamides as Potential Antimycobacterial Agents” (Molecules : A Journal of Synthetic Chemistry and Natural …, 2018)
Values after ≈ are worked out from the molar mass of the structure shown. Values joined by “and” are separate entries in the source; they are usually repeats but may differ in a detail not shown here. Equal values may be shown once. Read-outs that look alike come from different tables or passages of the source.

Legend:
Type in all cases: cell-based
[1] = test system: Escherichia coli CCM 4517; experiment: Antibacterial microdilution broth, EC; settings: read-out: MIC EC
[2] = test system: Pseudomonas aeruginosa CCM 1961; experiment: Antibacterial microdilution broth, PA; settings: read-out: MIC PA
[3] = test system: Enterococcus sp. J 14365/08; experiment: Antibacterial microdilution broth, EF; settings: read-out: MIC EF
[4] = test system: Staphylococcus aureus CCM 4516/08; experiment: Antibacterial microdilution broth, SA; settings: read-out: MIC SA
[5] = test system: Staphylococcus epidermidis H 6966/08; experiment: Antibacterial microdilution broth, SE; settings: read-out: MIC SE
[6] = test system: Staphylococcus aureus H 5996/08 methicillin resistant; experiment: microbe, parasite or virus in culture; settings: for MIC: Staphylococcus aureus, MRSA, read-out: MIC MRSA
[7] = test system: Mycobacterium smegmatis CCM 4622 (ATCC 607); experiment: Antimycobacterial microdilution, M. smegmatis; settings: Middlebrook 7H9 with OADC, resazurin
Candida glabrata 20/I = experiment: Antifungal microdilution broth, CG; settings: Nakaseomyces glabratus, 20/I, read-out: MIC CG
[8] = test system: Trichophyton interdigitale 445; experiment: Antifungal microdilution broth, TI; settings: read-out: MIC TI
Candida krusei E28 = experiment: Antifungal microdilution broth, CK; settings: Pichia kudriavzevii, read-out: MIC CK
[9] = test system: Lichtheimia corymbifera 272; experiment: Antifungal microdilution broth, LC; settings: read-out: MIC LC
[10] = test system: Candida albicans ATCC 44859; experiment: Antifungal microdilution broth, CA; settings: Candida albicans, read-out: MIC CA
Candida tropicalis 156 = experiment: Antifungal microdilution broth, CT; settings: read-out: MIC CT
[11] = test system: Aspergillus fumigatus 231; experiment: Antifungal microdilution broth, AF; settings: read-out: MIC AF
Trichosporon asahii 1188 = experiment: Antifungal microdilution broth, TA; settings: read-out: MIC TA
[12] = Escherichia coli, CCM4517, 24 h
[13] = Escherichia coli, CCM4517, 48 h
[14] = Pseudomonas aeruginosa, CCM1961, 72 h
[15] = Pseudomonas aeruginosa, CCM1961, 120 h
[16] = Enterococcus, SP.J14365/08, 24 h
[17] = Enterococcus, SP.J14365/08, 48 h
[18] = Staphylococcus aureus, CCM4516, 24 h
[19] = Staphylococcus aureus, CCM4516, 48 h
[20] = Staphylococcus epidermidis, H6966/08, 24 h
[21] = Staphylococcus epidermidis, H6966/08, 48 h

| Molecule | MIC ([1]; 24 h) [µM] | MIC ([1]; 48 h) [µM] | MIC ([2]; 72 h) [µM] | MIC ([2]; 120 h) [µM] | MIC ([3]; 24 h) [µM] | MIC ([3]; 48 h) [µM] | MIC ([4]; 24 h) | MIC ([4]; 48 h) | MIC ([5]; 24 h) | MIC ([5]; 48 h) [µM] | MIC MRSA ([6]; 24 h) [µM] | MIC MRSA ([6]; 48 h) [µM] | MIC [1, 12] [µM] | MIC [1, 13] [µM] | MIC [2, 14] [µM] | MIC [2, 15] [µM] | MIC [3, 16] [µM] | MIC [3, 17] [µM] | MIC [4, 18] [µM] | MIC [4, 19] [µM] | also measured |
| --- | --- | --- | --- | --- | --- | --- | --- | --- | --- | --- | --- | --- | --- | --- | --- | --- | --- | --- | --- | --- | --- |
| NC[C@@H]1O[C@H](O[C@H]2[C@@H](O)[C@H](O[C@@H]3[C@@H](O)[C@H](N)C[C@H](N)[C@H]3O[C@H]3O[C@H](CN)[C@@H](O)[C@H](O)[C@H]3N)O[C@@H]2CO)[C@H](N)[C@@H](O)[C@@H]1O [Neom, neomycin, reference compound] | 0.98 (≈ 0.602 µg/mL) | 0.98 (≈ 0.602 µg/mL) | 7.81 (≈ 4.8 µg/mL) | 15.62 (≈ 9.6 µg/mL) | 250 (≈ 154 µg/mL) | 250 (≈ 154 µg/mL) | 3.9 µM and 3.90 µM | 3.9 µM and 3.90 µM | 3.9 µM and 3.90 µM | 7.81 (≈ 4.8 µg/mL) | 0.98 (≈ 0.602 µg/mL) | 0.98 (≈ 0.602 µg/mL) |  |  |  |  |  |  |  |  |  |
| CC1(C)S[C@@H]2[C@H](NC(=O)Cc3ccccc3)C(=O)N2[C@H]1C(=O)O [Pen, benzylpenicillin, reference compound] |  |  |  |  |  |  |  |  |  |  |  |  | 125 (≈ 41.8 µg/mL) | 125 (≈ 41.8 µg/mL) | > 500 | > 500 | 7.81 (≈ 2.61 µg/mL) | 15.6 (≈ 5.22 µg/mL) | 0.24 (≈ 0.0803 µg/mL) | 0.24 (≈ 0.0803 µg/mL) | MIC [5, 20]: 31.2 µM (≈ 10.4 µg/mL); MIC [5, 21]: 125 µM (≈ 41.8 µg/mL); MIC ([6]; 24 h): 125 µM (≈ 41.8 µg/mL); MIC ([6]; 48 h): 125 µM (≈ 41.8 µg/mL) |
| CC1(C)S[C@@H]2[C@H](NC(=O)COc3ccccc3)C(=O)N2[C@H]1C(=O)O [Phen, phenoxymethylpenicillin, reference compound] |  |  |  |  |  |  |  |  |  |  |  |  | > 500 | > 500 | > 500 | > 500 | 7.81 (≈ 2.74 µg/mL) | 7.81 (≈ 2.74 µg/mL) | 0.24 (≈ 0.0841 µg/mL) | 0.24 (≈ 0.0841 µg/mL) | MIC [5, 20]: 62.5 µM (≈ 21.9 µg/mL); MIC [5, 21]: 250 µM (≈ 87.6 µg/mL); MIC ([6]; 24 h): 250 µM (≈ 87.6 µg/mL); MIC ([6]; 48 h): 500 µM (≈ 175 µg/mL) |
| CO[C@H]1/C=C/O[C@@]2(C)Oc3c(C)c(O)c4c(O)c(c(/C=N/N5CCN(C)CC5)c(O)c4c3C2=O)NC(=O)/C(C)=C\C=C\[C@H](C)[C@H](O)[C@@H](C)[C@@H](O)[C@@H](C)[C@H](OC(C)=O)[C@@H]1C [RFM, rifampicin, reference compound] |  |  |  |  |  |  |  |  |  |  |  |  |  |  |  |  |  |  |  |  | M. smeg. ATCC 607 MIC [7]: 1.56 µg/mL; MIC ([7]; Mycolicibacterium smegmatis, read-out: M. smeg. ATCC 607 MIC): 0.78 to 1.56 µg/mL (≈ 0.948 to 1.9 µM) |
| C[C@@H](c1ncncc1F)[C@](O)(Cn1cncn1)c1ccc(F)cc1F [VOR, voriconazole, reference compound] |  |  |  |  |  |  |  |  |  |  |  |  |  |  |  |  |  |  |  |  | MIC (Candida glabrata 20/I; 24 h): 0.24 µM (≈ 0.0838 µg/mL); MIC (Candida glabrata 20/I; 48 h): 250 µM (≈ 87.3 µg/mL); MIC ([8]; Trichophyton interdigitale, 445, 72 h): 0.061 µM (≈ 0.0213 µg/mL); MIC ([8]; Trichophyton interdigitale, 445, 120 h): 0.12 µM (≈ 0.0419 µg/mL); MIC (Candida krusei E28; E28, 24 h): 0.49 µM (≈ 0.171 µg/mL); MIC (Candida krusei E28; E28, 48 h): 1.95 µM (≈ 0.681 µg/mL); MIC ([9]; Lichtheimia corymbifera, 272, 24 h): 125 µM (≈ 43.7 µg/mL); MIC ([9]; Lichtheimia corymbifera, 272, 48 h): 250 µM (≈ 87.3 µg/mL); MIC ([10]; ATCC44859, 24 h): 0.002 µM (≈ 0.000699 µg/mL); MIC ([10]; ATCC44859, 48 h): 0.008 µM (≈ 0.00279 µg/mL); MIC (Candida tropicalis 156; Candida tropicalis, 156, 24 h): 62.5 µM (≈ 21.8 µg/mL); MIC (Candida tropicalis 156; Candida tropicalis, 156, 48 h): 250 µM (≈ 87.3 µg/mL); MIC ([11]; Aspergillus fumigatus, 231, 24 h): 0.49 µM (≈ 0.171 µg/mL); MIC ([11]; Aspergillus fumigatus, 231, 48 h): 1.95 µM (≈ 0.681 µg/mL); MIC (Trichosporon asahii 1188; Trichosporon asahii, 1188, 24 h): 0.98 µM (≈ 0.342 µg/mL); MIC (Trichosporon asahii 1188; Trichosporon asahii, 1188, 48 h): 7.81 µM (≈ 2.73 µg/mL) |
| bacitracin [reference compound] | > 500 | > 500 | > 500 | > 500 | 31.25 | 31.25 | 15.62 µM | 31.25 µM | 15.62 µM | 31.25 | 15.62 | 31.25 |  |  |  |  |  |  |  |  |  |
